US8946266B2, “Substituted triazole and imidazole derivatives as gamma secretase modulators” (Janssen Pharmaceuticals, Inc., priority 2009, dated 2015)
pIC50: −log10 of the molar value. Like-named read-outs stand apart in the source and are kept apart here.

Legend:
Aβ42 = test: γ-secretase-modulating activity, Method 2: Aβ42 Alphalisa in supernatant of SKNBE2 cells carrying APP 695-wild type (Table 3b); assay type: cell-based; details: overnight
Procedure: (§1) Screening was carried out using SKNBE2 cells carrying the APP 695-wild type, grown in Dulbecco's Modified Eagle's Medium/Nutrient mixture F-12 (DMEM/NUT-mix F-12) (HAM) provided by Invitrogen (cat no. 10371-029) containing 5% Serum/Fe supplemented with 1% non-essential amino acids, 1-glutamine 2 mM, Hepes 15 mM, penicillin 50 U/ml (units/ml) en streptomycin 50 μg/ml. Cells were grown to near confluency.
(§2) The screening was performed using a modification of the assay as described in Citron et al (1997) Nature Medicine 3: 67. Briefly, cells were plated in a 384-well plate at 10^4 cells/well in Ultraculture (Lonza, BE12-725F) supplemented with 1% glutamine (Invitrogen, 25030-024), 1% non-essential amino acid (NEAA), penicillin 50 U/ml en streptomycin 50 μg/ml in the presence of test compound at different test concentrations. The cell/compound mixture was incubated overnight at 37° C., 5% CO2. The next day the media were assayed by two sandwich immuno-assays, for Aβ42 and Aβtotal.
(§3) Aβtotal and Aβ42 concentrations were quantified in the cell supernatant using the Aphalisa technology (Perkin Elmer). Alphalisa is a sandwich assay using biotinylated antibody attached to streptavidin coated donorbeads and antibody conjugated to acceptor beads. In the presence of antigen, the beads come into close proximity. The excitation of the donor beads provokes the release of singlet oxygen molecules that trigger a cascade of energy transfer in the acceptor beads, resulting in light emission. To quantify the amount of Aβ42 in the cell supernatant, monoclonal antibody specific to the C-terminus of Aβ42 (JRF/cAβ42/26) was coupled to the receptor beads and biotinylated antibody specific to the N-terminus of Aβ (JRF/AβN/25) was used to react with the donor beads. To quantify the amount of Aβ total in the cell supernatant, monoclonal antibody specific to the N-terminus of Aβ (JRF/AβN/25) was coupled to the receptor beads and biotinylated antibody specific to the mid region of Aβ (biotinylated 4G8) was used to react with the donor beads.
To obtain the values reported in Table 3b, the data were calculated as percentage of the maximum amount of amyloid Beta 42 measured in the absence of the test compound.
(§4) The sigmoidal dose response curves were analyzed using non-linear regression analysis with percentage of the control plotted against the log concentration of the compound. A 4-parameter equation was used to determine the IC50.
(§5) The IC50 values are shown in Table 3b (Aβtot means Aβtotal).

Aβtotal = test: γ-secretase-modulating activity, Method 2: Aβtotal Alphalisa in supernatant of SKNBE2 cells carrying APP 695-wild type (Table 3b); assay type: cell-based; details: overnight, read-out: IC50 Aβtot
Procedure: as §1, §2, §3, §4, §5

COc1cc(-c2nc(N3CC(C)OC(C)C3)n(C)n2)ccc1-n1cnc(C)c1 (stereo not drawn) [Compound 35]
pIC50 (Aβ42): 6.11 | pIC50 (Aβtotal): < 5.00

COc1cc(-c2nc3n(n2)CCC(c2ccccc2C(F)(F)F)N3)ccc1-n1cnc(C)c1 (stereo not drawn) [Compound 274]
pIC50 (Aβ42; Homo sapiens): 6.81 | pIC50 (Aβtotal; Homo sapiens): 5.06

COc1cc(-c2nc3n(n2)CCC[C@H]3c2ccc(F)cc2C)ccc1-n1cnc(C)c1 [Compound 333]
pIC50 (Aβ42): 7.59 | pIC50 (Aβtotal): < 5.00

COc1cc(-c2nc(Oc3ccccc3Cl)n(C(C)C)n2)ccc1-n1cnc(C)c1 [Compound 247]
pIC50 (Aβ42): 6.44 | pIC50 (Aβtotal): 5.09

COc1cc(-c2nc(Nc3cc(C(F)(F)F)ccc3F)n(C(C)C)n2)ccc1-n1cnc(C)c1 [Compound 178]
pIC50 (Aβ42): 7.68 | pIC50 (Aβtotal): 5.10

COc1cc(-c2nc(Nc3cc(F)c(F)c(F)c3)nn2C)ccc1-n1cnc(C)c1 [Compound 61]
pIC50 (Aβ42): 5.32 | pIC50 (Aβtotal): < 5.00

COc1cc(-c2nc(Nc3cc(F)ccc3C)n(C)n2)ccc1-n1cnc(C)c1 [Compound 173]
pIC50 (Aβ42): 7.22 | pIC50 (Aβtotal): < 5.00

COc1cc(-c2nc(N(C(C)=O)c3cc(F)c(F)cc3I)n(C)n2)ccc1-n1cnc(C)c1 [Compound 232]
pIC50 (Aβ42; Homo sapiens): 5.85 | pIC50 (Aβtotal; Homo sapiens): < 5.00

COc1cc(-c2nc(Nc3cc(S(C)(=O)=O)ccc3F)n(C)n2)ccc1-n1cnc(C)c1 [Compound 309]
pIC50 (Aβ42): 5.97 | pIC50 (Aβtotal): < 5.00

COc1cc(-c2nc(Nc3cc(Cl)ccc3OC(F)(F)F)n(C)n2)ccc1-n1cnc(C)c1 [Compound 183]
pIC50 (Aβ42): 7.89 | pIC50 (Aβtotal): < 5.00

COc1cc(-c2nc(-c3cc(C(F)(F)F)ccc3C)n(C)n2)ccc1-n1cnc(C)c1 [Compound 72]
pIC50 (Aβ42): 6.54 | pIC50 (Aβtotal): < 5.00

COc1nc(-c2nc3n(n2)CCOC3c2ccccc2OC(F)(F)F)ccc1-n1cnc(C)c1 (stereo not drawn) [Compound 348]
pIC50 (Aβ42): 7.10 | pIC50 (Aβtotal): < 5.00

COc1cc(Nc2nc(-c3ccc(-n4cnc(C)c4)c(OC)c3)nn2C)ccc1F [Compound 193]
pIC50 (Aβ42): 7.20 | pIC50 (Aβtotal): < 5.00

COc1cc(-c2nc(Nc3ccc(C)nc3)n(C)n2)ccc1-n1cnc(C)c1 [Compound 238]
pIC50 (Aβ42): 5.80 | pIC50 (Aβtotal): < 5.00

COc1cc(-c2nc(C3(c4ccc(F)cc4)CC3)nn2C)ccc1-n1cnc(C)c1 [Compound 60]
pIC50 (Aβ42): 5.07 | pIC50 (Aβtotal): < 5.00

COc1cc(-c2nc(N[C@@H](C)c3ccc(F)cc3)n(C)n2)ccc1-n1cnc(C)c1 [Compound 51]
pIC50 (Aβ42): 6.49 | pIC50 (Aβtotal): < 5.00

COc1cc(-c2nc(Nc3ccnc(C(F)(F)F)c3)n(C)n2)ccc1-n1cnc(C)c1 [Compound 235]
pIC50 (Aβ42): 6.88 | pIC50 (Aβtotal): < 5.00

COc1cc(-c2n[nH]c(-c3cccc(C(F)(F)F)c3)n2)ccc1-n1cnc(C)c1 [Compound 6]
pIC50 (Aβ42; Homo sapiens): 6.51 | pIC50 (Aβtotal; Homo sapiens): < 5.00

COc1cc(-c2nc(C)n(-c3cccc(C(F)(F)F)c3)n2)ccc1-n1cnc(C)c1 [Compound 30]
pIC50 (Aβ42): 6.53 | pIC50 (Aβtotal): < 5.00

COc1cc(-c2nc(C(=O)c3cccc(C(F)(F)F)c3)n(C(C)C)n2)ccc1-n1cnc(C)c1 [Compound 91]
pIC50 (Aβ42; Homo sapiens): 5.63 | pIC50 (Aβtotal; Homo sapiens): < 5.00

COc1cc(-c2nc(Cc3ccc(F)cc3C(F)(F)F)nn2C)ccc1-n1cnc(C)c1 [Compound 57]
pIC50 (Aβ42): 6.07 | pIC50 (Aβtotal): < 5.00

Cc1cn(-c2ccc(-c3nc(Nc4cc(C(F)(F)F)ccc4F)n(C)n3)cc2OC(F)(F)F)cn1 [Compound 139]
pIC50 (Aβ42): 6.10 | pIC50 (Aβtotal): < 5.00

COc1cc(-c2nc(Nc3cc(C(F)(F)F)ccc3C)n(C)n2)ccc1-n1cnc(C)c1 [Compound 131]
pIC50 (Aβ42): 8.10 | pIC50 (Aβtotal): 5.20

CCn1nc(-c2ccc(-n3cnc(C)c3)c(OC)c2)nc1Nc1ccccc1C(F)(F)F [Compound 147]
pIC50 (Aβ42): 7.39 | pIC50 (Aβtotal): < 5.00

COc1cc(-c2nc(N3CCCC(C(F)(F)F)C3)n(C(C)C)n2)ccc1-n1cnc(C)c1 (racemic) [Compound 75]
pIC50 (Aβ42): 6.17 | pIC50 (Aβtotal): 5.19

COc1cc(-c2nc(-c3ccc(-n4cnc(C)c4)c(OC)c3)nn2C)ccc1Cl [Compound 43]
pIC50 (Aβ42): 6.83 | pIC50 (Aβtotal): < 5.00

COc1cc(-c2nc(-c3ccccc3C(F)(F)F)n(C(C)C)n2)ccc1-n1cnc(C)c1 [Compound 67]
pIC50 (Aβ42): 6.70 | pIC50 (Aβtotal): 5.02

COc1cc(-c2nc(N[C@@H](C)c3ccc(F)cc3)nn2C)ccc1-n1cnc(C)c1 [Compound 62]
pIC50 (Aβ42): 5.49 | pIC50 (Aβtotal): < 5.00

COc1cc(-c2nc(Nc3c(C)cccc3F)n(C)n2)ccc1-n1cnc(C)c1 [Compound 323]
pIC50 (Aβ42): 7.29 | pIC50 (Aβtotal): < 5.00

COc1cc(-c2nc3n(n2)CCCC3c2cccc(F)c2)ccc1-n1cnc(C)c1 (stereo not drawn) [Compound 252]
pIC50 (Aβ42): 6.62 | pIC50 (Aβtotal): < 5.00

COc1cc(-c2nc(Nc3ccc(C#N)cc3)n(C)n2)ccc1-n1cnc(C)c1 [Compound 225]
pIC50 (Aβ42): 5.84 | pIC50 (Aβtotal): < 5.00

COc1cc(-c2nc(Nc3c(F)cccc3F)n(C)n2)ccc1-n1cnc(C)c1 [Compound 116]
pIC50 (Aβ42): 6.70 | pIC50 (Aβtotal): < 5.00

COc1cc(-c2nc(Nc3cccc(C(F)(F)F)c3C)n(C)n2)ccc1-n1cnc(C)c1 [Compound 164]
pIC50 (Aβ42): 7.52 | pIC50 (Aβtotal): < 5.00

COc1cc(-c2nc(Nc3cccc(C#N)c3F)n(C)n2)ccc1-n1cnc(C)c1 [Compound 229]
pIC50 (Aβ42): 6.53 | pIC50 (Aβtotal): < 5.00

COc1cc(-c2nc3n(n2)CCOC3c2ccccc2C(F)(F)F)ccc1-n1cnc(C)c1 (stereo not drawn) [Compound 316]
pIC50 (Aβ42): 6.18 | pIC50 (Aβtotal): < 5.00

COc1cccc(-c2n[nH]c(-c3ccc(-n4cnc(C)c4)c(OC)c3)n2)c1 [Compound 55]
pIC50 (Aβ42): 6.63 | pIC50 (Aβtotal): < 5.00

COc1cc(-c2nc3n(n2)CCCOC3c2ccccc2C(F)(F)F)ccc1-n1cnc(C)c1 (stereo not drawn) [Compound 285]
pIC50 (Aβ42): 7.12 | pIC50 (Aβtotal): < 5.00

COc1cc(-c2nc3c(Nc4cccc(C(F)(F)F)c4)cccn3n2)ccc1-n1cnc(C)c1 [Compound 289]
pIC50 (Aβ42): 6.15 | pIC50 (Aβtotal): < 5.00

COc1cc(-c2nc3n(n2)CCCC3c2cccc(OC(F)(F)F)c2)ccc1-n1cnc(C)c1 (stereo not drawn) [Compound 267]
pIC50 (Aβ42): 7.31 | pIC50 (Aβtotal): < 5.00

COc1cc(-c2nc(Nc3c(F)ccc(OC)c3F)n(C)n2)ccc1-n1cnc(C)c1 [Compound 196]
pIC50 (Aβ42): 6.89 | pIC50 (Aβtotal): < 5.00

COc1cc(-c2nc(N(C)c3ccc(F)cc3C(F)(F)F)nn2C)ccc1-n1cnc(C)c1 [Compound 53]
pIC50 (Aβ42): < 5.00 | pIC50 (Aβtotal): < 5.00

COc1cc(-c2nc(-c3ccc(F)cc3)n(C(C)C)n2)ccc1-n1cnc(C)c1 [Compound 5]
pIC50 (Aβ42; Homo sapiens): 6.77 | pIC50 (Aβtotal; Homo sapiens): < 5.00

COc1cc(-c2nc3n(n2)CCC[C@H]3c2cc(C(F)(F)F)ccc2C)ccc1-n1cnc(C)c1 [Compound 341]
pIC50 (Aβ42): 7.92 | pIC50 (Aβtotal): 5.11

CNc1nc(-c2ccc(-n3cnc(C)c3)c(OC)n2)nn1-c1cccc(C(F)(F)F)c1 [Compound 92]
pIC50 (Aβ42): 6.03 | pIC50 (Aβtotal): < 5.00

COc1cc(-c2nc(Nc3cccc(C(F)(F)F)c3Cl)n(C)n2)ccc1-n1cnc(C)c1 [Compound 163]
pIC50 (Aβ42): 7.21 | pIC50 (Aβtotal): < 5.00

COc1cc(-c2nc3n(n2)CCCCC3c2ccccc2C(F)(F)F)ccc1-n1cnc(C)c1 (stereo not drawn) [Compound 283]
pIC50 (Aβ42): 7.11 | pIC50 (Aβtotal): 5.10

COc1cc(-c2nc(Nc3ccc(Cl)cc3F)n(C)n2)ccc1-n1cnc(C)c1 [Compound 126]
pIC50 (Aβ42): 6.79 | pIC50 (Aβtotal): < 5.00

COc1cc(-c2nc(Nc3cccc(Cl)c3)n(C)n2)ccc1-n1cnc(C)c1 [Compound 103]
pIC50 (Aβ42): 7.44 | pIC50 (Aβtotal): 5.20
